Assay results taken from US20260007692A1, “BIORESORBABLE ORGANIC BIOELECTRONICS” (priority 2023, published 2026).

How the values were obtained:
[1] = Oxidation / redox potential of trimers and EDOT monomer; assay type: physicochemical
HLF-1 = test: MTT cell viability assay (limiting-dilution toxicity); assay type: cell-based, human; conditions: 1 day exposure, up to 1 mg mL^−1
Method: The MTT cell viability assay was conducted to determine in vitro toxicity of A5, ETE-S and ETE-PC. Briefly, HLF-1 (2×10^4 cells well-1) were plated in a 96-well flat-bottom microplate and grown for 24 h. Cells were treated with A5, ETE-S, or ETE-PC (0-1000 μg ml^−1) for 24 h. Post-treatment, 200 μL of MTT (0.5 mg mL^−1) was added into each well and incubated at 37° C. for 4 h. After incubation, 200 μL of isopropanol was added to dissolve formazan crystals. The optical density of formazan solution, as a measure of live cells, was obtained using a microplate reader at 570 nm (Spark Cyto, Tecan). The formazan signal (live cell count) was normalized to the control samples not exposed to A5 or ETE-Rs. 3 biological and 3 technical replicates were used for each setting. Each well contained up to 200 μg of our compound (1 mg mL^−1, 200 μL) which can be compared to a typical in vivo injection of 400 ng (40 mg mL^−1, 10 nL).

[2] = tested on: normal human lung fibroblast (HLF-1) cells; test: Calcein-AM cytotoxicity assessment in normal lung fibroblast; assay type: cell-based; conditions: 24 hrs
Method: Study of the in vitro toxicity of ETE-PC in normal human lung fibroblast (HLF-1) cells. Briefly, HLF-1 cells were seeded in 96 well plate at a density of 2×10^4 cell per well and grown for 24 hrs. Later cells were treated with various concentrations of ETE-PC (5-1000 μg/ml) for 24 hrs. Post treatment, 200 μl live cell staining dye calcein-AM (Thermo Fisher, Invitrogen, Cat no. C3100MP) (2 μM in PR free DMEM) was added to wells and incubated for 30 min followed by examination of live cells using fluorescence cell imaging (Spark Cyto cell imager, Tecan).

[3] = biological target: T1, horseradish peroxidase (HRP) (Armoracia rusticana, UniProt P00433); test: Enzymatic polymerization of ETE-PC with HRP and H2O2; assay type: biochemical; conditions: ETE-PC 500 μg/ml, HRP 5 U/ml
T1 construct: purchased Merck, Sigma Aldrich P8375-25KU
T1 sequence (P00433 31-338 limits assumed): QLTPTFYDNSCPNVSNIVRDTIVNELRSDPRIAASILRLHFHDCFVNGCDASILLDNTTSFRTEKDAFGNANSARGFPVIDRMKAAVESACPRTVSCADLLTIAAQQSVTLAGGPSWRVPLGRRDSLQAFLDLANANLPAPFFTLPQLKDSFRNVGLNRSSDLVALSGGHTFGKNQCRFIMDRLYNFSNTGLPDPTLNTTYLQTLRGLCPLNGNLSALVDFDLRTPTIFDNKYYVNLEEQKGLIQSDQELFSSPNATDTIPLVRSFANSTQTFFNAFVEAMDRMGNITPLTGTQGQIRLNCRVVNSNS
Method: A solution of ETE-PC (500 μg/ml) was prepared in DPBS (Thermo Fischer, Gibco, Cat no. 14190-250) and mixed with different concentrations of hydrogen peroxide (H2O2) (0.001-0.01%) and horseradish peroxidase (HRP) (Merck, Sigma Aldrich, P8375-25KU) (5 U/ml in DPBS) was added. The polymerization was examined by the change of colour of the ETE-PC solution from slightly yellow to black and taking absorbance at 350 nm and 780 nm to detect polymerized and unpolymerized ETE-PC. The absorbance maxima of polymerized and unpolymerized ETE-PC were determined by a wavelength scan using UV-Vis spectrophotometry by Spark Cyto (Tecan) multi-mode plate reader.

## c1scc2c1OCCO2 [EDOT, 3,4-ethylenedioxythiophene]
[1]
  oxidation potential: 1.2 V

## C[N+](C)(C)CCOP(=O)([O-])OCCc1cc(-c2scc3c2OCCO3)sc1-c1scc2c1OCCO2 [ETE-PC]
HLF-1
  cell toxicity: neither A5 nor ETE-PC showed cell toxicity
[2]; 5-1000 μg/ml
  morphology in phase contrast images: No detrimental change in morphology of HLF-1 cells was observed
[2]; even at 1000 μg/ml
  calcein-AM fluorescence vs control: no change the calcein-AM fluorescence
[3]
  H2O2 concentration at which polymerization by HRP got saturated: 0.002%
  concentration of H2O2 required for HRP mediated polymerization: 0.001%

## O=S(=O)(O)CCCCOCCc1cc(-c2scc3c2OCCO3)sc1-c1scc2c1OCCO2 [ETE-S, sodium 4-(2-(2,5-bis(2,3-dihydrothieno[3,4-b][1,4]dioxin-5-yl)thiophene-3-yl)ethoxy)butane-1-sulfonate]
HLF-1
  cell toxicity: some toxicity at high concentrations
